This note sets out measurements from patent publication US20130252935A1, “Monobactams” (PFIZER INC., priority 2010, published 2013).

What all share (assay type): cell-based
Assay [1] deals with Klebsiella pneumoniae 1000-02. Put plainly: minimum inhibitory concentration (MIC) testing according to CLSI guidelines, Klebsiella pneumoniae. As to conditions: ciprofloxacin-resistant, ESBL-expressing clinical isolate 1000-02, overnight incubation, lower of duplicate values; for MIC: Klebsiella pneumoniae, read-out: AB-MBT: Klebsiella pneumoniae 1000-02: MIC (MstRcnt). The method in brief: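 MIC by CLSI broth dilution with 2-fold concentration steps and overnight incubation; lowest concentration visibly inhibiting growth versus drug-free control. Ciprofloxacin-resistant, ESBL-expressing clinical isolate 1000-02. Run in duplicate, lower value reported when within 2-fold, with QC organisms and reference compounds per run.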

The subject of assay [2] is Acinetobacter baumannii/haemolyticus AB-3167. As to the kind of experiment: minimum inhibitory concentration (MIC) testing according to CLSI guidelines, Acinetobacter. As to conditions: multidrug-resistant clinical isolate AB-3167, overnight incubation, lower of duplicate values; for MIC: Acinetobacter baumannii, read-out: AB-MBT: Acinetobacter baumanii AB-3167: MIC (MstRcnt). The method in brief:
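Broth dilution MIC per CLSI M7-A8/M100-S20 against multidrug-resistant clinical isolate AB-3167, using 2-fold drug dilutions and overnight incubation; MIC is the lowest concentration without visible growth. Duplicates within 2-fold reported as the lower value, with control strains and reference compounds in range.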

The subject of assay [3] is Pseudomonas aeruginosa UC-12120. As to the kind of experiment: minimum inhibitory concentration (MIC) testing according to CLSI guidelines, Pseudomonas aeruginosa. As to conditions: UC-12120, wild-type, labeled as 1091-05, overnight incubation, lower of duplicate values; for MIC: Pseudomonas aeruginosa, UC12120, read-out: AB-MBT: Pseudomonas aeruginosa 1091-05: MIC (MstRcn). The method in brief: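 Broth dilution MIC per CLSI guidelines against wild-type P. aeruginosa UC-12120 (1091-05), using 2-fold drug dilutions and overnight incubation with visual reading of lowest growth-inhibiting concentration. Tested in duplicate; lower value reported when within 2-fold, with control organisms and reference compounds for quality control.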

One may read the MIC as the least concentration at which growth counts as inhibited.

Converted amounts (≈) assume the structure as drawn.

Regarding `CC(C)(O/N=C(\C(=O)N[C@@H]1C(=O)N(S(=O)(=O)O)[C@@H]1CNS(=O)(=O)NCc1cc(=O)c(O)cn1O)c1csc(N)n1)C(=O)O` [Example 37, 2-({[(1Z)-1-(2-amino-1,3-thiazol-4-yl)-2-{[(2R,3S)-2-{[({[(1,5-dihydroxy-4-oxo-1,4-dihydropyridin-2-yl)methyl]amino}sulfonyl)amino]methyl}-4-oxo-1-sulfoazetidin-3-yl]amino}-2-oxoethylidene]amino}oxy)-2-methylpropanoic acid], the minimal inhibitory concentration (MIC) in assay [1] was 4 µg/mL (≈ 5.98 µM); in assay [2] it was 2 µg/mL (≈ 2.99 µM); in assay [3] it was 1 µg/mL (≈ 1.5 µM).

`CC(C)(O/N=C(\C(=O)N[C@@H]1C(=O)N(S(=O)(=O)O)[C@@H]1CNC(=O)OCc1cc(-c2cc(=O)c(O)cn2O)no1)c1csc(N)n1)C(=O)O` [Example 38, 2-(5-{[({[(2R,3S)-3-{[(2Z)-2-(2-amino-1,3-thiazol-4-yl)-2-{[(2-carboxypropan-2-yl)oxy]imino}acetyl]amino}-4-oxo-1-sulfoazetidin-2-yl]methyl}carbamoyl)oxy]methyl}isoxazol-3-yl)-1,5-dihydroxy-4-oxo-1,4-dihydropyridinium]: the “AB-MBT: Klebsiella pneumoniae 1000-02: MIC (MstRcnt)” value in assay [1] amounted to 0.5 µg/mL. Also, the “AB-MBT: Acinetobacter baumanii AB-3167: MIC (MstRcnt)” value in assay [2] was 0.5 µg/mL. The “AB-MBT: Pseudomonas aeruginosa 1091-05: MIC (MstRcn)” value in assay [3] was determined as 2.0 µg/mL.

Consider `CC(C)(O/N=C(\C(=O)N[C@@H]1C(=O)N(S(=O)(=O)O)[C@@H]1CNC(=O)c1ccc(S(=O)(=O)NCc2cc(=O)c(O)cn2O)cc1)c1csc(N)n1)C(=O)O` [Example 39], for which the “AB-MBT: Klebsiella pneumoniae 1000-02: MIC (MstRcnt)” value in assay [1] came to 1.00 µg/mL. In assay [2], the “AB-MBT: Acinetobacter baumanii AB-3167: MIC (MstRcnt)” value is 0.500 µg/mL. Also, the “AB-MBT: Pseudomonas aeruginosa 1091-05: MIC (MstRcn)” value in assay [3] came to 0.250 µg/mL.

For the molecule `CC(C)(O/N=C(\C(=O)N[C@@H]1C(=O)N(S(=O)(=O)O)[C@@H]1CNC(=O)c1cccc(S(=O)(=O)NCc2cc(=O)c(O)cn2O)c1)c1csc(N)n1)C(=O)O` [Example 40, 2-({[(1Z)-1-(2-amino-1,3-thiazol-4-yl)-2-{[(2R,3S)-2-({[3-({[(1,5-dihydroxy-4-oxo-1,4-dihydropyridin-2-yl)methyl]amino}sulfonyl)benzoyl]amino}methyl)-4-oxo-1-sulfoazetidin-3-yl]amino}-2-oxoethylidene]amino}oxy)-2-methylpropanoic acid], the results for the MIC in assay [1], in assay [2] and in assay [3] were 0.5 µg/mL (≈ 0.647 µM), 0.25 µg/mL (≈ 0.324 µM) and 0.25 µg/mL (≈ 0.324 µM), respectively.

As for `CC(C)(O/N=C(\C(=O)N[C@@H]1C(=O)N(S(=O)(=O)O)[C@@H]1CNC(=O)C(=O)NCC1=CC(=O)C(O)=CC1O)c1csc(N)n1)C(=O)O` (stereo partly drawn) [Example 41, 2-({[(1Z)-1-(2-amino-1,3-thiazol-4-yl)-2-{[(2R,3S)-2-({[{[(4,6-dihydroxy-3-oxocyclohexa-1,4-dien-1-yl)methyl]amino}(oxo)acetyl]amino}methyl)-4-oxo-1-sulfoazetidin-3-yl]amino}-2-oxoethylidene]amino}oxy)-2-methylpropanoic acid], the MIC worked out at 0.5 µg/mL (≈ 0.758 µM) in assay [1], 0.25 µg/mL (≈ 0.379 µM) in assay [2] and 0.06 µg/mL (≈ 0.091 µM) in assay [3].

`CC(C)(O/N=C(\C(=O)N[C@@H]1C(=O)N(S(=O)(=O)O)[C@@H]1CNC(=O)CCC(=O)NCc1cc(=O)c(O)cn1O)c1csc(N)n1)C(=O)O` [Example 42, 2-({[(1Z)-1-(2-amino-1,3-thiazol-4-yl)-2-{[(2R,3S)-2-{[(4-{[(1,5-dihydroxy-4-oxo-1,4-dihydropyridin-2-yl)methyl]amino}-4-oxobutanoyl)amino]methyl}-4-oxo-1-sulfoazetidin-3-yl]amino}-2-oxoethylidene]amino}oxy)-2-methylpropanoic acid]: the MIC came out at 0.5 µg/mL (≈ 0.726 µM) in assay [1], 0.125 µg/mL (≈ 0.182 µM) in assay [2] and 0.125 µg/mL (≈ 0.182 µM) in assay [3].

Regarding `CC(C)(O/N=C(\C(=O)N[C@@H]1C(=O)N(S(=O)(=O)O)[C@@H]1CNC(=O)c1ccc(C(=O)NCc2cc(=O)c(O)cn2O)cc1)c1csc(N)n1)C(=O)O` [Example 43, 2-({[(1Z)-1-(2-amino-1,3-thiazol-4-yl)-2-{[(2R,3S)-2-{[(4-{[(1,5-dihydroxy-4-oxo-1,4-dihydropyridin-2-yl)methyl]carbamoyl}benzoyl)amino]methyl}-4-oxo-1-sulfoazetidin-3-yl]amino}-2-oxoethylidene]amino}oxy)-2-methylpropanoic acid], the MIC in assay [1] is 0.5 µg/mL (≈ 0.679 µM); in assay [2], 0.25 µg/mL (≈ 0.339 µM); in assay [3], 0.125 µg/mL (≈ 0.17 µM).

`CC(C)(O/N=C(\C(=O)N[C@@H]1C(=O)N(S(=O)(=O)O)[C@@H]1CNC(=O)c1cccc(C(=O)NCc2cc(=O)c(O)cn2O)c1)c1csc(N)n1)C(=O)O` [Example 44, 2-({[(1Z)-1-(2-amino-1,3-thiazol-4-yl)-2-{[(2R,3S)-2-{[(3-{[(1,5-dihydroxy-4-oxo-1,4-dihydropyridin-2-yl)methyl]carbamoyl}benzoyl)amino]methyl}-4-oxo-1-sulfoazetidin-3-yl]amino}-2-oxoethylidene]amino}oxy)-2-methylpropanoic acid]: the MIC in assay [1], in assay [2] and in assay [3] was 0.25 µg/mL (≈ 0.339 µM) throughout.

Turning to `CC(C)(O/N=C(\C(=O)N[C@@H]1C(=O)N(S(=O)(=O)O)[C@@H]1CNC(=O)Cc1ccc(NC(=O)c2cc(=O)c(O)cn2O)cc1)c1csc(N)n1)C(=O)O` [Example 45, 2-({[(1Z)-1-(2-amino-1,3-thiazol-4-yl)-2-{[(2R,3S)-2-({[(4-{[(1,5-dihydroxy-4-oxo-1,4-dihydropyridin-2-yl)carbonyl]amino}phenyl)acetyl]amino}methyl)-4-oxo-1-sulfoazetidin-3-yl]amino}-2-oxoethylidene]amino}oxy)-2-methylpropanoic acid], the MIC came to 4 µg/mL (≈ 5.43 µM) in assay [1], 0.5 µg/mL (≈ 0.679 µM) in assay [2] and 0.5 µg/mL (≈ 0.679 µM) in assay [3].

Consider `CC(C)(O/N=C(\C(=O)N[C@@H]1C(=O)N(S(=O)(=O)O)[C@@H]1CNc1ccc(C(=O)NCc2cc(=O)c(O)cn2O)cn1)c1csc(N)n1)C(=O)O` [Example 46, 2-({[(1Z)-1-(2-amino-1,3-thiazol-4-yl)-2-{[(2R,3S)-2-{[(5-{[(1,5-dihydroxy-4-oxo-1,4-dihydropyridin-2-yl)methyl]carbamoyl}pyridin-2-yl)amino]methyl}-4-oxo-1-sulfoazetidin-3-yl]amino}-2-oxoethylidene]amino}oxy)-2-methylpropanoic acid], for which the MIC in assay [1] amounted to 2 µg/mL (≈ 2.82 µM); in assay [2] it was 0.5 µg/mL (≈ 0.705 µM); in assay [3], 0.25 µg/mL (≈ 0.352 µM).

As for `CC(C)(O/N=C(\C(=O)N[C@@H]1C(=O)N(S(=O)(=O)O)[C@@H]1CNC(=O)NCc1cc(-c2cc(=O)c(O)cn2O)no1)c1csc(N)n1)C(=O)O` [Example 47, 2-({[(1Z)-1-(2-amino-1,3-thiazol-4-yl)-2-{[(2R,3S)-2-{[({[3-(1,5-dihydroxy-4-oxo-1,4-dihydropyridin-2-yl)isoxazol-5-yl]methyl}carbamoyl)amino]methyl}-4-oxo-1-sulfoazetidin-3-yl]amino}-2-oxoethylidene]amino}oxy)-2-methylpropanoic acid], the MIC in assay [1] is 0.25 µg/mL (≈ 0.357 µM); in assay [2], 0.25 µg/mL (≈ 0.357 µM); in assay [3], 0.125 µg/mL (≈ 0.179 µM).
